# Measured values published in US12551543B2, “Vaccine compositions comprising C—C motif chemokine 22 (CCL22) or fragments thereof” (IO BIOTECH APS, priority 2015, dated 2026).
# Entries after “also recorded” stand apart in the source; their conditions may differ. Like-named read-outs stand apart in the source and are kept apart here.
# Tests used:
# T2 cells = test: 51Cr-release cytotoxicity assay, peptide-pulsed T2 cells; assay type: cell-based; details: for T-cell avidity of pCCL223-12-specific T cells, peptide titration: effector to target ratio 3:1
# Method: Conventional ^51Cr-release assays for CTL-mediated cytotoxicity were carried out as described elsewhere (Andersen et al., 1999). Target cells were T2-cells (ATCC), HLA-A2^+ EBV transformed B-cell line (RPM16666), AML cells (UKE-1 and THP1) colon cancer cells (SW480), melanoma cell line (FM55-M2), Breast cancer cells MDA-MB231 with or without IFN-γ (100 U/m1) addition for 2 days prior to performing cytotoxicity assay. For peptide titration cytotoxicity assay, T2 cells were used as target cells and a constant effector to target ratio of 3:1 was used for all peptide concentrations.
# K562-A2 cells = test: 51Cr-release assay, HLA-A2-transfected K562 cells pulsed with peptide; assay type: cell-based
# [1] = tested on: PBMCs from cancer patients and healthy donors; test: IFNγ ELISPOT on PBMCs; assay type: cell-based, human
# Method: In the present study the ELISPOT was performed according to the guidelines provided by CIP (http://cimt.eu/cimt/files/dl/cip guidelines.pdf). The ELISPOT assay was used to quantify peptide epitope specific effector cells that release cytokines (IFNγ, TNFα, IL-17A or IL-10) as described previously (Sorensen et al., 2012). In some experiments, PBMCs were stimulated once in vitro with peptide prior to analysis. In some experiments, 104 autologous DCs were added to the wells as antigen presenting cells. The spots were counted using the ImmunoSpot Series 2.0 Analyzer (C.T.L.—Europe, Bonn, Germany). In some experiments, CD4+ cells were isolated by EasySep human CD4^+ T cell enrichment kit (Stem Cell technologies, Grenoble, France) following manufacturers' instructions. This yielded highly pure cultures (>97% CD4+), which was confirmed by staining with surface antibodies as described below for intracellular cytokine staining (ICS) and flow cytometry (FCM).
# PBMCs were placed in the bottom of ELISPOT plate (nitrocellulose bottomed 96-well plates by MultiScreen MAIP N45; Millipore) pre-coated with IFN-γ capture Ab (Mabtech) and the peptides were added at 5 μg/ml. PBMCs from each patient were set up in duplicates or triplicates for peptide and control stimulations. Cells were incubated in ELISPOT plates in the presence of an antigen for 14-16 hours after which they are washed off and secondary biotinylated Ab (Mabtech) was added. After 2h incubation unbound secondary antibody was washed off and streptavidin conjugated alkaline phosphatase (AP) (Mabtech) was added for 1 h. Next, unbound conjugated enzyme is washed off and the assay is developed by adding BCIP/NBT substrate (Mabtech). Developed ELISPOT plates were analysed on CTL ImmunoSpot S6 Ultimate-V analyzer using Immunospot software v5.1. Responses were calculated as the difference between average numbers of spots in wells stimulated with pCCL223-12 peptide and control wells. […]
# [2] = tested on: PBMCs from a melanoma patient; test: HLA-A2/peptide tetramer staining; assay type: cell-based, human
# Method: (§1) The following day IL-7 and IL-12 (PeproTech, London, UK) were added. […] The day after peptide stimulation IL-2 (PeproTech, London, UK) was added. 4 DC stimulations and 1 PBMC stimulation were made in total.
# HLA-A2 multimers were produced in house by using a previously described MHC peptide exchange technology (15).
# CCL22 [3] = test: CCL22 ELISA of ovarian cancer ascites cell supernatants after peptide stimulation; assay type: cell-based, human; details: ascites cells from ovarian cancer patients, IL-2, compared to HIV peptide
# Method: Peripheral Blood Mononuclear Cells (PBMC) were collected from healthy individuals and cancer patients (melanoma, renal cell carcinoma and breast cancer patients). Blood samples were drawn a minimum of four weeks after termination of any kind of anti-cancer therapy. PBMC were isolated using Lymphoprep™ separation, HLA-typed and frozen in FCS with 10% DMSO. Fresh ovarian ascites was filtered with a 70 μm filter and the cells were isolated by centrifugation (1500 […], 5 min). If the ascites contained a high abundance of erythrocytes, they were removed by adding lysis-buffer (Ortho-Mune Lysing Solution) to the cells with incubation of 3-5 min. The lysis-buffer was quickly washed away and the cells cryopreserved in human serum with 10% DMSO at −140 degrees until use. The protocol was approved by the Scientific Ethics Committee for The Capital Region of Denmark and conducted in accordance with the provisions of the Declaration of Helsinki. Written informed consent from the patients was obtained before study entry.
# Cell culture supernatants from PBMC, cancer cell lines and ascites cell cultures as well as siRNA transfected THP-1 cells were analyzed using Human CCL22/MDC DuoSet ELISA kit (R&D Systems) according to manufacturer's instructions. […]
# HLA-negative K562 cells = test: 51Cr-release assay, non-transfected K562 cells pulsed with peptide; assay type: cell-based
# Method: Conventional ^51Cr-release assays for CTL-mediated cytotoxicity were carried out as described elsewhere (Andersen et al., 1999). Target cells were T2-cells (ATCC), HLA-A2^+ EBV transformed B-cell line (RPM16666), AML cells (UKE-1 and THP1) colon cancer cells (SW480), melanoma cell line (FM55-M2), Breast cancer cells MDA-MB231 with or without IFN-γ (100 U/m1) addition for 2 days prior to performing cytotoxicity assay.
# CCL22 [4] = test: CCL22 ELISA of PBMC supernatants after peptide stimulation; assay type: cell-based, human
# Method: Cell culture supernatants from PBMC, cancer cell lines and ascites cell cultures as well as siRNA transfected THP-1 cells were analyzed using Human CCL22/MDC DuoSet ELISA kit (R&D Systems) according to manufacturer's instructions.
# (§2) PBMCs from healthy donors or cancer patients were thawed and rested for 4 hours in X-VIVO 15™ (Lonza) before being set up into 24-well plates with 2×10^6 cells/well in X-Vivo medium with 5% human serum. […] Appropriate amount of DMSO was added to HIV control wells to control for the solvent of pCCL223-12 peptide. The following day, IL-2 was added to a final concentration of 120 U/ml (360 U for ascites cells stimulation). Supernatant samples were collected after 2 or 7 days of culture. Cells were stimulated twice before being tested in ELISPOT assay.
# [5] = tested on: CCL22-specific T cell cultures; test: Intracellular staining for IFNγ and TNFα after peptide stimulation; assay type: cell-based, human
# Method: as §1
# The cells were then stained for surface markers, then washed and permeabilized by using Fixation/Permeabilization and Permeabilization Buffer (eBioscience), according to manufacturer's instructions. Antibodies used: IFNγ-PE-Cy7, TNFa-APC, CD4-PerCP, CD8− FITC (all from BD Biosciences). Dead cells were stained using LIVE/DEAD® Fixable Near-IR Dead Cell Stain Kit according to manufacturer's instructions.
# PBMCs = test: Cytokine expression LUMINEX of PBMC supernatants after peptide stimulation; assay type: cell-based, human
# Method: as §2, with “assay. Cell culture supernatants from PBMCs or ascites cells stimulated with CCL22-3 or HIV peptide were analyzed for IFN-γ, TNF-α, IL-6, IL-10 and 1 L-1β using Bio-Plex Pro™ Human Chemokine assays from Bio-Rad. […] Wilcoxon-signed rank test was used for statistical analysis of IL-10 expression due to multiple zero values.” for “assay.”
# C57BL/6 mice = test: Murine CCL22 peptide vaccination, IFNγ ELISPOT on splenocytes; assay type: in vivo; details: 100 μg peptide s.c. in IFA/PBS once a week for 3 weeks
# Method: Murine CCL22 peptide (TAG Copenhagen, Denmark) stocks of 10 mM (mCCL22Short) and 5 mM (mCCL22Long) were made in DMSO. Mice were vaccinated subcutaneously (s.c) on the lower back with 100 μg peptide in 1:1 (vol/vol) IFA/PBS emulsion in a total volume of 100 μl. Mice were vaccinated once a week for 3 weeks and sacrificed one week after the last vaccination.
# Spleens from sacrificed mice were removed and smashed through a cell strainer ([…]) and washed with R10 media: RPMI 1640 (Gibco® by Life technologies™) with 10% FCS (Gibco® by Life technologies™). Red blood cells lysed by adding red blood cell lysis buffer for 2 min, followed by two washes with R10 with 10% fetal bovine serum.
# ELISPOT was performed as described by the manufacturer's instruction. In short, 96-well MSIPN4W ELISPOT plate (Millipore) were coated with mouse IFNγ-specific capture Ab (AN18: Mabtech) in a concentration of 12 μg/ml in PBS overnight at 4° C., 8×10^5 or 4×10^5 splenocyteslwell were seeded in the plate in triplicates. To investigate IFNγ response to murine CCL22 peptides, cells were incubated with different peptides (5 μM) or R10 as control for 18-20 h at 37° C. ELISPOT was developed with mouse IFNγ-specific detection Ab (R4-6A2-biotin; Mabtech) in a concentration of 1 μg/ml in Buffer (PBS, 0.5% BSA and NaN3) for 2 h at room temperature, followed by 6 washes in PBS. […]
sequence,measurement,setting,value
"RLQTALLVVL (listed as Homo sapiens) [pCCL223-12, Polypeptide fragment of human CCL22]",lysis of peptide-pulsed T2 cells by CCL22-specific T cells,T2 cells,able to lyse
same,"T-cell avidity of pCCL223-12-specific T cells, peptide titration",T2 cells,highest avidity
same,"T-cell avidity of pCCL223-12-specific T cells, peptide titration",T2 cells; listed as CCL22-3,recognized better
same,lysis of peptide-pulsed T2 cells by CCL22-specific T cells,T2 cells; listed as CCL22-3,lysed; also recorded: specifically recognize and lyse
same,recognition of HLA-A2-transfected K562 cells pulsed with peptide,K562-A2 cells,only recognized
same,recognition of HLA-A2-transfected K562 cells pulsed with peptide,K562-A2 cells; listed as CCL22-3,recognized and killed
same,"spontaneous specific T-cell reactivity, IFN-γ ELISPOT","[1]; PBMCs from 13 cancer patients and 10 healthy individuals, peptide stimulation for two weeks with low-dose IL-2",detected in a number of melanoma patients and healthy donors
same,"overall ELISPOT responses, healthy donors versus cancer patients",[1]; peptide stimulation for two weeks with low-dose IL-2,similar
same,specific responses by IFNγ ELISPOT,[1]; screen of PBMCs from cancer patients,Indications for specific responses
same,tetramer-positive cells,[2]; after five stimulations with peptide-pulsed autologous DCs or PBMCs,small but distinct population of tetramer-positive cells
same,tetramer-positive cells,[2]; after tetramer isolation and expansion,clear population
same,overall CCL22 levels in supernatants,CCL22 [3],decrease
same,overall CCL22 levels in supernatants,CCL22 [3]; listed as CCL22-3,affected
same,recognition of non-transfected K562 cells pulsed with peptide,HLA-negative K562 cells,not recognized
same,CCL22 concentration in supernatants compared to HIV control peptide,"CCL22 [4]; PBMCs from 11 healthy donors, one week after stimulation",significantly decreased
same,overall decrease in CCL22 concentration compared to HIV control peptide,"CCL22 [4]; PBMCs from 13 cancer patients, one week after stimulation",did not reach significance
same,CCL22 concentration compared to HIV control peptide,CCL22 [4]; PBMCs from cancer patients with high CCL22 expression (≥5000 pg/mL),significant decrease
same,CCL22 expression in supernatant compared to HIV control peptide,"CCL22 [4]; donor PBMCs with ELISPOT response, over one week, IL-2",lower
same,"CD4+ T cell response (IFNγ, TNFα) to peptide stimulation",[5],no response detected
same,"CD4+ T cell response (IFNγ, TNFα) to peptide stimulation",[5]; listed as CCL22-3,no reactivity
same,"CD8+ T cell response (IFNγ, TNFα) to peptide stimulation",[5]; listed as CCL22-3,CD8+ (Left) and not CD4+ (Right) T cells react; also recorded: secreting IFN-γ and TNF-α
same,CD8+ cells secreting IFNγ and TNFα in response to peptide stimulation,"[5]; tetramer-isolated, expanded culture",Around 30%
same,IL-10 in the supernatants after stimulation,PBMCs,almost undetectable
same,IL-6 level compared to HIV control peptide,"PBMCs; PBMCs from 11 cancer patients, one week of stimulation",significant increase
same,cultures with decreasing TNFα levels,"PBMCs; PBMCs from cancer patients, one week of stimulation",7 out of 11
same,cultures with decreasing TNFα levels,"PBMCs; PBMCs from healthy donors, one week of stimulation",7 out of 10
same,IFN-γ concentration versus control peptide,PBMCs; culture supernatants,no unambiguous differences
same,IL-1β concentration versus control peptide,PBMCs; culture supernatants,no unambiguous differences
same,IL-10 concentration versus control peptide,PBMCs; culture supernatants,no unambiguous differences
same,IL-1 induced after stimulation,PBMCs; data not shown,only one cancer patient and two healthy donors
"RLQTALLVV (listed as Homo sapiens) [pCCL223-11, Polypeptide fragment of human CCL22]","T-cell avidity of pCCL223-12-specific T cells, peptide titration",T2 cells,reacted towards both peptides
same,"T-cell avidity of pCCL223-12-specific T cells, peptide titration",T2 cells; listed as CCL22-2,cross-react
"MATLRVPLLVALVLLAVAIQTS (listed as Mus musculus) [mCCL22long, long murine CCL22 peptide]",IFNγ ELISPOT immune response of splenocytes of vaccinated mice,C57BL/6 mice,increased immune response
"MDRLQTALLVVLVLLAVALQAT (listed as Homo sapiens) [CCL22long, Polypeptide fragment of human CCL22]",lysis of peptide-pulsed T2 cells by CCL22-specific T cells,T2 cells,recognized and killed
same,lysis of peptide-pulsed T2 cells by CCL22-specific T cells,T2 cells; listed as CCL22-signal peptide,lysed
"VALVLLAVAI (listed as Mus musculus) [mCCL22short, short murine CCL22 peptide; part of mCCL22Long]",IFNγ ELISPOT immune response of splenocytes of vaccinated mice,C57BL/6 mice,increased immune response
